Experimental data from the NIST ThermoML archive (doi:10.1021/je500857w).
± gives the expanded uncertainty stated by the source.

Assay: xn = mol fraction of the nth substance listed
Details: Gas, Vibrating wire viscometry, x1 = 0.949

Compound: C [methane] + CCC
- viscosity (199.92 K, 10367 kPa): 0.03814 ± 0.0019 mPa·s
- viscosity (200.6 K, 13841 kPa): 0.04236 ± 0.0016 mPa·s
- viscosity (202.32 K, 17279 kPa): 0.04452 ± 0.0017 mPa·s
- viscosity (203.24 K, 24182 kPa): 0.05008 ± 0.0018 mPa·s
- viscosity (203.36 K, 20735 kPa): 0.04739 ± 0.0019 mPa·s
- viscosity (203.36 K, 27628 kPa): 0.05294 ± 0.0018 mPa·s
- viscosity (203.43 K, 25922 kPa): 0.0511 ± 0.0019 mPa·s
- viscosity (204.19 K, 31114 kPa): 0.05549 ± 0.0018 mPa·s
- viscosity (255.51 K, 24135 kPa): 0.03085 ± 0.00042 mPa·s
- viscosity (255.57 K, 31095 kPa): 0.03577 ± 0.0006 mPa·s
- viscosity (255.59 K, 25902 kPa): 0.03221 ± 0.00046 mPa·s
- viscosity (255.59 K, 27592 kPa): 0.03348 ± 0.00048 mPa·s
- viscosity (255.62 K, 20701 kPa): 0.02791 ± 0.00042 mPa·s
- viscosity (311.08 K, 25869 kPa): 0.02348 ± 0.00038 mPa·s
- viscosity (311.11 K, 31037 kPa): 0.0265 ± 0.0004 mPa·s
- viscosity (311.12 K, 20946 kPa): 0.02061 ± 0.00062 mPa·s
- viscosity (311.13 K, 24419 kPa): 0.02279 ± 0.00062 mPa·s
- viscosity (311.13 K, 27584 kPa): 0.02453 ± 0.00046 mPa·s
- viscosity (366.88 K, 24192 kPa): 0.01997 ± 0.00032 mPa·s
- viscosity (366.89 K, 25926 kPa): 0.02064 ± 0.0003 mPa·s
- viscosity (366.89 K, 27645 kPa): 0.02138 ± 0.00032 mPa·s
- viscosity (366.89 K, 31144 kPa): 0.0226 ± 0.00054 mPa·s
- viscosity (423.62 K, 24191 kPa): 0.01944 ± 0.00034 mPa·s
- viscosity (423.63 K, 25937 kPa): 0.01988 ± 0.00028 mPa·s
- viscosity (423.63 K, 27640 kPa): 0.02032 ± 0.00034 mPa·s
- viscosity (423.63 K, 31097 kPa): 0.02136 ± 0.0003 mPa·s
